How the values were obtained:
mouse lung cancer Lewis = assay: Activity against mouse grafted lung cancer Lewis; type: in vivo, Kunming mice; conditions: Lewis, first experiment, 1 mg/kg
Description: The experiments were performed according to “Guideline for New Drugs (Western medicines) in Pre-clinical Stages” issued by Bureau of Drug Policy & Administration of the People's Republic of China, and the relevant methods in “Methodology of Pharmaceutical Experiments”, Xu Shuyun et al. ed. 120 male Kunming mice weighting […] were allowed to grow 3 days. No abnormality was observed. The mice were routinely inoculated in oxter with mouse sarcoma S-180, and weighted 4 hrs. after inoculation. The mice were randomly divided into 12 groups, 10 mice/group. Group 1 was given 0.3 ml of physiological saline as negative control; Group 2 was given 5-FU as positive control, 0.6 mg/mouse; Group 3 was given hydroxycamptothecine as positive control, 0.02 mg/mouse. Groups 4, 5 and 6 were injected with 10% Compound 6, 0.4 ml/mouse, 0.2 ml/mouse, and 0.1 ml/mouse, respectively. Groups 7, 8 and 9 were injected with 10% Compound 8, 0.4 ml/mouse, 0.2 ml/mouse, and 0.1 ml/mouse, respectively. Groups 10, 11, and 12 were injected with 10% Compound 20, 0.4 ml/mouse, 0.2 ml/mouse, and 0.1 ml/mouse, respectively. The tested compounds were administered on the next day after inoculation, once a day on alternate days, 6 doses totally administered. On the next day after the end dose, the mice were weighed and sacrificed. After the tumor was excised, body weight and tumor weight were recorded. The tumor inhibition rate was calculated based on the following formula: [(average tumor weight of the control groups−average tumor weight of the experimental groups)/average tumor weight of the control groups]×100%. The data was processed statistically. The above experiments were repeated three times.
The experiments were identical with the experiments for activity against mouse grafted sarcoma S-180, except the following:
(1) the tumor cell line inoculated was mouse lung cancer Lewis;
(2) Compound 6, Compound 8 and Compound 21 were not tested for their activity;
(3) the mice were divided into six groups.

[1] = system: U-937 human histocytic lymphoma; assay: In vitro inhibition rate to tumor cells (MTT), U-937; type: cell-based; conditions: 50 μg/ml
Description: (§1) (1) Single cell suspension was seeded into 96-well plates (×3) (the cells was diluted in the PRMI-1640 minimum medium to 3×10^4 cells/ml, […] diluted cells/well). […] The experiments were performed in quadruplicate.
(§2) (2) The medium was removed. Solutions of the anti-tumor agents (15 compounds) were prepared in a freshly prepared medium at the concentrations indicated in the following Table. […] of the solution was added into each well. Incubation was continued for 48 hours.
(§3) (3) […] of 2 mg/ml MTT was added into each well, and incubated for 4 hours.
(§4) (4) The medium was removed from the well. The microplates were swiftly turned down to throw-off the medium. […] DMSO was added into each well, and vortexed at room temperature for 10 minutes.
(§5) (5) OD value (λ=570 nm) was measured with an Enzyme-Linked Detector.
(§6) (6) The inhibition rates (IR) of cell growth were respectively calculated based on the following equation: IR(%)=[1−(average OD of the experimental group/average OD of the control group)]×100%

[2] = system: SMMC-7721 human hepatic carcinoma; assay: In vitro inhibition rate to tumor cells (MTT), SMMC-7721; type: cell-based; conditions: 50 μg/ml
Description: as §1, §2, §3, §4, §5, §6

[3] = system: Bel-7402 human hepatic carcinoma; assay: In vitro inhibition rate to tumor cells (MTT), Bel-7402; type: cell-based; conditions: 50 μg/ml
Description: as §1, §2, §3, §4, §5, §6

[4] = system: MCF-7 human mammary adenocarcinoma; assay: In vitro inhibition rate to tumor cells (MTT), MCF-7; type: cell-based; conditions: 50 μg/ml
Description: as §1, §2, §3, §4, §5, §6

[5] = system: LLC mouse Lewis lung carcinoma; assay: In vitro inhibition rate to tumor cells (MTT), LLC; type: cell-based; conditions: 50 μg/ml
Description: as §1, §2, §3, §4, §5, §6

[6] = system: Hela human cervical carcinoma; assay: In vitro inhibition rate to tumor cells (MTT), Hela; type: cell-based; conditions: 50 μg/ml
Description: as §1, §2, §3, §4, §5, §6

[7] = system: HL-60 human promyelocytic leukemia; assay: In vitro inhibition rate to tumor cells (MTT), HL-60; type: cell-based; conditions: 50 μg/ml
Description: as §1, §2, §3, §4, §5, §6

[8] = system: A-549 human lung adenocarcinoma; assay: In vitro inhibition rate to tumor cells (MTT), A-549; type: cell-based; conditions: 50 μg/ml
Description: as §1, §2, §3, §4, §5, §6

| Compound | Average weight (g)-after administration (mouse lung cancer Lewis) [g] | Inhibition rate (%) (mouse lung cancer Lewis) | Tumor weight (mouse lung cancer Lewis; X ± SD, n = 10) [g] | inhibition rate, Results (%) U-937 ([1]; Table 1) [%] | inhibition rate, Results (%) U-937 ([1]; Table 2 (repeated screening)) [%] | inhibition rate, Results (%) SMMC-7721 ([2]; Table 1) [%] | inhibition rate, Results (%) SMMC-7721 ([2]; Table 2 (repeated screening)) [%] | inhibition rate, Results (%) Bel-7402 ([3]; Table 1) [%] | inhibition rate, Results (%) Bel-7402 ([3]; Table 2 (repeated screening)) [%] | inhibition rate, Results (%) MCF-7 ([4]; Table 1) [%] | inhibition rate, Results (%) MCF-7 ([4]; Table 2 (repeated screening)) [%] | inhibition rate, Results (%) LLC ([5]; Table 1) [%] | inhibition rate, Results (%) LLC ([5]; Table 2 (repeated screening)) [%] | inhibition rate, Results (%) Hela ([6]; Table 1) [%] | inhibition rate, Results (%) Hela ([6]; Table 2 (repeated screening)) [%] | inhibition rate, Results (%) HL-60 ([7]; Table 1) [%] | inhibition rate, Results (%) HL-60 ([7]; Table 2 (repeated screening)) [%] | inhibition rate, Results (%) A-549 ([8]; Table 1) [%] | inhibition rate, Results (%) A-549 ([8]; Table 2 (repeated screening)) [%] |
| --- | --- | --- | --- | --- | --- | --- | --- | --- | --- | --- | --- | --- | --- | --- | --- | --- | --- | --- | --- |
| CC[C@@]1(O)C(=O)OCc2c1cc1n(c2=O)Cc2cc3cc(O)ccc3nc2-1 [Hydioxycamptothecine] | 21.0 | 49.7 | 1.50 ± 0.28 | – | – | – | – | – | – | – | – | – | – | – | – | – | – | – | – |
| CC(C)C1CC23OC1(O)CC(Br)(CBr)C2CCC3C (stereo not drawn) [Compound 30, Curcumol dibromide] | – | – | – | 13.25 | 13.10 | 1.03 | 4.56 | 12.40 | 9.84 | 36.15 | 30.56 | −1.83 | −4.65 | 53.87 | 56.89 | 13.20 | 4.12 | 4.36 | 4.01 |
| CC(C)C1CC23OC1(O)CC(C)(O)C2CCC3C (stereo not drawn) [Compound 35, Curcumol monohydroxy compound without double bond] | – | – | – | 7.36 | 0.23 | 5.23 | 4.32 | 3.65 | 6.78 | 3.89 | 9.87 | 8.97 | 8.23 | 59.88 | 64.01 | 3.12 | 3.99 | 3.89 | 2.77 |
| CC(C)C1CC23OC1(O)CC(CO[N+](=O)[O-])(O[N+](=O)[O-])C2CCC3C (stereo not drawn) [Compound 31, Curcumol dinitrate] | – | – | – | −0.68 | −12.61 | −1.96 | −4.56 | 0.23 | 8.42 | 16.75 | 14.87 | 1.13 | 1.25 | 57.98 | 55.49 | 16.50 | 2.78 | 8.65 | 4.82 |

— patent publication US7700584B2 (Hangzhou Minsheng Pharmaceuticals Co., Ltd., priority 2004, dated 2010)
